Data on six molecules can be found in patent US8372973B2, “Prokineticin 1 receptor antagonists” (Janssen Pharmaceutica N.V., priority 2005, dated 2013).

“And” between values parts separate entries of the source, which are not always exact repeats. Identical values can stand only once. “Also recorded” adds a separate entry of the source. Like-named read-outs stand apart in the source and are kept apart here.

The target in one test is T1, PK1 receptor (Rattus norvegicus, UniProt Q8R416).
T1 construct: The PK1 evoked increase in Isc requires the presence of endogenous PK1 receptors; from tissue; host or cells: isolated rat ileum mucosa
The test is described as follows: Suppression of PK1-evoked increase in Isc in isolated rat ileum mucosa, Ussing-type chambers. To be noted: 1 μM test compound, 15 min; PK1 10 and 100 nM cumulative. The protocol: Methodology. The basic methodology for Ussing-type ion flux chambers used in these studies was the same as that described in detail above with the following modifications to the experimental protocol. […] The responses to two sequential EFS were used to gauge tissue viability and comparability of the responses of individual tissues from each rat and between rats. Tissue conductance was measured at periodic intervals as changes in the amplitudes of brief short-circuit current responses evoked by application of 1 mV amplitude bi-polar pulses from a pulse generator using Ohm's Law. Three to four tissues from each rat were studied. The tissues from a given animal were grouped and assigned accordingly: one control tissue which received only vehicle followed by two consecutive doses of PK-1 ligand added in a cumulative fashion to the basolateral surface of the tissue; the remaining two to three tissues from the same animal were assigned to be exposed to a given PK-1 receptor antagonist (e.g., 3-4 tissues from 1 rat: Control, Antagonist1, Antagonist2, and/or Antagonist3). Test compound was added to the basolateral tissue side reservoir at a final concentration of 1 μM and allowed a 15 minute incubation period prior to challenge with the PK1 peptide. […]

The subject of test [1] is pro-secretory effect of carbachol. As to the kind of experiment: Selectivity test against carbachol-evoked secretion in rat ileum mucosa, Ussing-type chambers.
Test [2] relates to Cholera toxin stimulated gut secretion. Further details: species or system rat.
For test [3], the target named is T2, GPR73 (prokineticin 1 receptor) (Homo sapiens, UniProt Q8TCW9).
T2 construct: expressed in transfected cells; host or cells: HEK 293
As to the kind of experiment: PK1 functional assay: Ca2+ mobilization on the FLIPR. It is filed as cell-based. Conditions: for inhibition at 10 µM: read-out: Ca^2+ Mobilization % Inh @10 μM; for IC50: HEK 293 GPR73 expressing cells, PK1 ligand preparation at its EC50, read-out: Ca^2+ Mobilization IC50. As to the method: At a time of 24 h prior to running the assay, in cell culture media (DMEM containing high Glucose and L-glutamine, 10% FBS, 1% Pen/Streptomycin, 1% Sodium Pyruvate, 20 mM HEPES, Zeocin 200 mg/L), […] of 1.3*10^6/ml HEK 293 GPR73 (prokineticin 1 receptor) expressing cells were plated in a 96 well poly-d-lysine coated plate (Costar), and incubated at 37° C. and 5% CO2. On the day in which the assay was run, the media was removed and […] of 5× Calcium Plus Dye (Molecular Devices) which was previously resuspended with 200 mL of assay buffer [HBSS w/Ca^2+ and Mg^2+ w/o phenol red, 20 mM HEPES, 0.1% BSA, 10 mL probenecid (710 mg probenecid in 5 mL of 1N NaOH, to which was then added 5 mL HBSS containing 20 mM HEPES)] was added to each well of the 96-well plate. The plate was incubated at 37° C. and 5% CO2 for 30 min in dark. The plate was removed and allowed to reach RT for 15 min in the dark. The assay was then run on the FLIPR. In Brief: base line read for 1 min, compound added (25 μL) and incubated for 4 min, 15 seconds, PK1 ligand preparation added (25 μL) for a final concentration of a previously determined EC50 and fluorescence was counted for 1 min, 45 seconds. Baseline is described as the amount of relative fluorescence read when buffer alone is added to cells. Baseline was subtracted from all wells. Percent of control was calculated as follows:
(Baseline subtracted well value is divided by baseline subtracted max value)*100. Percent inhibition is 100 minus the percent of control value.
The IC50 is defined as the amount of a given compound required to inhibit 50% of the maximum signal that is generated by the concentration of PK1 preparation used in our assay. IC50 values were calculated using GraphPad Prism.
For orientation: A change in cytosolic calcium serves as a functional read-out for many receptors and channels.

The test system of test [4] is ileum mucosal tissues from PK1 receptor knock-out mice. As to the kind of experiment: PK1 effect on Isc in ileum mucosal tissues from PK1 receptor knock-out mice. Conditions: exogenous PK1 peptide.

T2 sequence (Q8TCW9 whole entry, species assumed): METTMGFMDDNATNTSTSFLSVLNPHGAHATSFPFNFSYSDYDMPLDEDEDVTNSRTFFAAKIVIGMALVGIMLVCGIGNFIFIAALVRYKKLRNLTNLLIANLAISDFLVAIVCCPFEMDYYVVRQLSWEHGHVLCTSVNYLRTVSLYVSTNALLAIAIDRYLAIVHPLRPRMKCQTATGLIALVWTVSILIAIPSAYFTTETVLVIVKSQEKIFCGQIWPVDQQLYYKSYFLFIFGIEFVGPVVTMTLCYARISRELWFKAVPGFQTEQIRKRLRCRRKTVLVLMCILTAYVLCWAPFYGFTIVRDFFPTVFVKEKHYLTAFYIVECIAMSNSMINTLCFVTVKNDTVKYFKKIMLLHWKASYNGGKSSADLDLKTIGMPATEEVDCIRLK
T1 sequence (Q8R416 whole entry): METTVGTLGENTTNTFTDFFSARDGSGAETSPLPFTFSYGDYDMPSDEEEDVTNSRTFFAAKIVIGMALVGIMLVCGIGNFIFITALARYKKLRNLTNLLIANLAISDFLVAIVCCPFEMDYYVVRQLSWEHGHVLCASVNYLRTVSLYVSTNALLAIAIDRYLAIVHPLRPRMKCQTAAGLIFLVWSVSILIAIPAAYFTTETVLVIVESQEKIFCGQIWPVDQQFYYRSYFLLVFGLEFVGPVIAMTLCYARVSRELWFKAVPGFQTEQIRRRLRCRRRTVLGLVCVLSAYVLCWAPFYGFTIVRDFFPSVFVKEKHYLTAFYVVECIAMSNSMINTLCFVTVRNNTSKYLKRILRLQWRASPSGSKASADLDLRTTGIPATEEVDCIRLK

As for `COc1ccc(Cn2c(NCc3cccnc3N)nc(=O)n(Cc3ccc(OC)cc3)c2=O)cc1` [Cpd 3, 6-[(2-Amino-pyridin-3-ylmethyl)-amino]-1,3-bis-(4-methoxy-benzyl)-1H-[1,3,5]triazine-2,4-dione], the “suppression of the PK1 evoked increase in Isc” value on PK1 receptor is “suppresses; also recorded: significant surmountable antagonism”. Also, the “suppression of the pro-secretory effect of carbachol (unrelated secretagogue)” value is recorded as “without inhibiting” in test [1] and “without inhibiting; also recorded: failed to suppress” in test [1] (two ascending cumulative carbachol concentrations, serosal side). The “suppression of Cholera toxin-evoked stimulation of gut secretion (in words)” value in test [2] was “suppresses”. Further, in test [2], the “suppression of the sustained increase in baseline Isc evoked by Cholera toxin” value is 50-60%.

As usually defined, the IC50 is the concentration that gives 50% inhibition. Turning to `COc1ccc(Cn2c(NCc3cccnc3)nc(=O)n(Cc3ccc(OC)cc3)c2=O)cc1` [Cpd 40], in test [3] (@10 μM compound), the inhibition at 10 µM came to 83%. In addition, the IC50 in test [3] was 0.557 µM.

Regarding `COc1ccc(Cn2c(=O)nc(NCc3cnc(C)cc3C)n(Cc3ccc(OC(F)F)cc3)c2=O)cc1` [Cpd 96], the inhibition at 10 µM in test [3] (@10 μM compound) was found to be 92%.

Consider `COc1ccc(Cn2c(=O)nc(NCc3cnc(C)cc3C)n(Cc3ccccc3OC)c2=O)cc1` [Cpd 106], for which the “Ca^2+ Mobilization % Inh @10 μM” value in test [3] (@10 μM compound, 10 µM) was found to be 101%. In test [3] (@10 μM compound), the inhibition at 10 µM turned out to be 99%. In test [3], the IC50 is 0.025 µM and 0.074 µM.

Regarding `COc1ccccc1Cn1c(=O)nc(NCc2cnc(C)cc2C)n(Cc2ccc(OC(F)F)cc2)c1=O` [Cpd 193], in test [3] (@10 μM compound), the inhibition at 10 µM came out at 39%. Further, the IC50 in test [3] was > 10 µM.

B1: PK1: Recombinant human prokineticin-1 from HEK 293 cells, FLAG epitope cleaved; mixture of full-length ligand and four C-terminal residue truncated product (protein)
chain: AVITGACERDVQCGAGTCCAISLWLRGLRMCTPLGREGEECHPGSHKVPFFRKRKHHTCPCLPNLLCSRFPDGRYRCSMDLKNINF
modifications: mixture with C-terminal truncated product; Recombinant N-terminal FLAG-tagged human prokineticin-1 after enterokinase cleavage of Flag-tag
As to B1, the “change in Isc compared to wild-type littermates” value in test [4] was “failed to elicit a significant change”.
